Experimental data reported in patent publication US6902881B2, “Compounds and methods for regulating cell differentiation” (priority 2000, dated 2005).

Legend:
[1] = system: CEA content of HT 29 colon cancer cells; experiment: CEA production by HT 29 cells (ELISA/IMx); type: cell-based, human
Protocol: Expression of differentiation markers. Carcinoembryogenic antigen in cell supernatants collected each three days was assayed by standard ELISA determinations using an IMX assay for quantitative measurement of the antigen. Cellular triacyl glycerol content was measured spectrophotometrically by enzymatic hydrolysis and analysis of the amount of glycerol released using a standard assay, Triglyceride (INT) 10 (Sigma Diagnostics). Cellular alkaline phosphatase activity was determined by measuring the fluorescence change induced by the hydrolysis of 4-methylumbelliferylphosphate. The fluorescence is detected at 450 nm with an excitation of 365 nm, using a Jobin Ivon-Spex Fluoro Max-2 fluorimeter. The alkaline phosphatase activity detected was expressed in units of μmol/mg protein/min.
The effects of biliverdine on cell proliferation and production of two differentiation markers, CEA and alkaline phosphatase activity, were analyzed, CEA was assayed by standard ELISA determinations while alkaline phosphatase activity was determined by measuring the fluorescence change induced by the hydrolysis of phosphate from 4-methylumbelliferylphosphate as follows. To measure CEA production, cell supernatants were collected at the first cycle of change of media (third day) and on day 12. […] This was diluted 1:1 and assayed for CEA using an Imx assay for quantitive measurement of the antigen. […]

[2] = target: T1, aryl hydrocarbon receptor (AhR) (Homo sapiens, UniProt P35869); settings: μM range / concentrations used here (Phelan 1998); cited from earlier work
T1 sequence (P35869 11-848): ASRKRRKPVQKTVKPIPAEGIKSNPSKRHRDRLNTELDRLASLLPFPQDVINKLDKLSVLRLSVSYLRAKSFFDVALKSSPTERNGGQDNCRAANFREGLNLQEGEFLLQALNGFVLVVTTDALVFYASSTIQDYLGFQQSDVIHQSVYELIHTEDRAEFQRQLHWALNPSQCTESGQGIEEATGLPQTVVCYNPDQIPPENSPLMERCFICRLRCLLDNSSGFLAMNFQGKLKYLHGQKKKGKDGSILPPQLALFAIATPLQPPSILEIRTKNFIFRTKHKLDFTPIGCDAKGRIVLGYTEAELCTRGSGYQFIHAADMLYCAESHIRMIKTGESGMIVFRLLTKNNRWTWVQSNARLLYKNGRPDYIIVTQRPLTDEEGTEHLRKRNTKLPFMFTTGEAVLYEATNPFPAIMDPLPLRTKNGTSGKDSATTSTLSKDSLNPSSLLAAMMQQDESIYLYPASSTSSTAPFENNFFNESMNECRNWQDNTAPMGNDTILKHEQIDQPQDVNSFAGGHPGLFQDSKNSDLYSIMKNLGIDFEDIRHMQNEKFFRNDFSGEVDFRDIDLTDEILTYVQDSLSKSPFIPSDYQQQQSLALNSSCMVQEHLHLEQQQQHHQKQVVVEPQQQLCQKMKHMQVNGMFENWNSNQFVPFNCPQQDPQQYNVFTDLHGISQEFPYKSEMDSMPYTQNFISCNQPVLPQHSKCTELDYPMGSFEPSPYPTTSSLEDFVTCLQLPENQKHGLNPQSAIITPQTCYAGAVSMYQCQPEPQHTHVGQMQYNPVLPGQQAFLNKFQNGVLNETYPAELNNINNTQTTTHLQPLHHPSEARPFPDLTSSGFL

[3] = Photo transformation of biliverdin by UV irradiation of embryos (HPLC peak area); type: physicochemical, Xenopus laevis
Protocol: The cytoplasmic yolk platelet fraction that was photo transformed by UV light was identified in extracts of about 250 embryos irradiated with 366 nm UV light. The chromatogram of irradiated embryo extracts was compared to that of the non-irradiated ones to identify the photo transformed fraction. Once the retention time of the UV sensitive fraction was determined, the parent chemical species was isolated from control egg extracts. To confirm its UV sensitivity, an aliquot of the pertinent HPLC fraction in 44% acetonitrile and 3 mM ammonium acetate, pH 4.5, was irradiated in a cuvette in a Varian-Cary Bio 50 spectrophotometer at 366 nm. The pH was chosen to approximate that of intact yolk platelets. The wavelength was selected on the basis of the absorption spectra of the target fraction. The absorbance change was monitored at 375 nm. […]
After UV irradiation, a set of embryos from each group were collected, dejellied with 2% L-cysteine, 0.16M NaOH and washed extensively in 20% Steimberg's buffer. […] The bilins and retinoids in each batch were extracted, separated and analyzed as described. […] The gross morphological appearance of each individual embryo was evaluated by light microscopy. The developmental teratology characteristic of the “UV syndrome,” was scored by standard criteria and categorized into the five groups comprising the “index of axis deficiency”. […]

In the case of `C=CC1=C(C)/C(=C/C2=NC(=C\c3[nH]c(/C=C4\NC(=O)C(C)=C4C=C)c(C)c3CCC(=O)O)/C(CCC(=O)O)=C2C)NC1=O` [Biliverdin, biliverdin IXα], the “CEA secreted into the medium” value ([1]; HT 29, by days 9-12 of exposure, constitutive slightly below 3) is given as “over 80 ng/ml/10^6 cells”, the “overproduction of the differentiation marker CEA” value ([1]; HT 29, quiescent proliferative period days 3-40) is given as over 25 fold and the “activation of the aryl hydrocarbon receptor” value [2] is given as “binds and is activated”. For the same compound, the “share of the 23.3 min peak area photo transformed by UV irradiation” value ([3]; embryos irradiated with 366 nm UV light, typical experiment) was over 67% and the “decrease of content after UV irradiation” value ([3]; pre-cleavage embryos exposed to 358 nm for 10 min) was 50%.
